One test concerns transglutaminase (TGase). Nature of the test: Measurement of TG (TGase inhibitory activity, monodansyl cadaverine / N,N-dimethylcasein fluorescence, FDSS 3000). Format: biochemical. In outline: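 Compound (1 μL of 10 mM stock) added to 0.1 mL reaction: 100 mM HEPES-NaOH pH 7.5, 1 mM CaCl2, 20 μM monodansyl cadaverine, 0.05 mg/mL N,N-dimethylcasein, 5 μg/mL TGase. Rate of fluorescence change at 340 nm measured; DMSO control set to 100; TG50 is the concentration halving activity.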

The subject of test [1] is Truncated N-terminal huntington 150 Q-EGFP-Neuron 2a cells. Nature of the test: Measurement of x-Fold (polyglutamine aggregation inhibitory activity). It counts as cell-based. As to the method:
In the present invention, the polyglutamine aggregation inhibitory activity (x-Fold) can be measured, for example, by the method described in the Example.
The number of the aggregated cells, and the total number of cells were counted by Array Scan V T1 (manufactured by Cellomics, Pittuburg, USA), and the ratio of the aggregated cells to the total number of cells was determined (x-Fold). […]

Where [2] appears, read: TGase activity with compound (10 mM, 1 μL in 0.1 ml enzyme reaction solution), DMSO control taken as 100.
Setting [3] is: TGase inhibitory activity measurement, unit not given.
Where [4] appears, read: polyglutamine aggregation, Truncated N-terminal huntington 150 Q-EGFP-Neuron 2a cells.
Setting [5] is: ratio of aggregated cells to total number of cells, compound 20 μM, 20 hr, almost 1 without compound, smaller = stronger inhibition.
[6] abbreviates: polyglutamine aggregation inhibitory activity, Table 1.

Consider `CN(C)CCOB(c1ccc(COc2ccc(B(OCCN(C)C)c3ccc(C(F)(F)F)cc3)cc2)cc1)c1ccc(C(F)(F)F)cc1` [Example 401, (4′-trifluoromethylphenyl-N,N-dimethylaminoethoxyboryl)-4-phenyl (4′-trifluoromethylphenyl-N,N-dimethylaminoethoxyborylbenzyl)ether], for which the “TGase activity remaining (% of DMSO control = 100)” value with transglutaminase (TGase) (setting [2]) and in the test on transglutaminase (TGase) (setting [3]) was 121 each time. For the same compound, the x-Fold in test [1] (setting [4]) and in test [1] (setting [5]) was 0.95 each time.

Take `CNCCOB(c1ccc(COc2ccc(B(OCCNC)c3ccc(C(F)(F)F)cc3)cc2)cc1)c1ccc(C(F)(F)F)cc1` [Example 402, (4′-trifluoromethylphenyl-N-methylaminoethoxyboryl)-4-phenyl(4′-trifluoromethylphenyl-N-methylaminoethoxyboryl-4-benzyl)ether]: the “TGase activity remaining (% of DMSO control = 100)” value in the test with transglutaminase (TGase) (setting [2]) and with transglutaminase (TGase) (setting [3]) was −12 in each case. For the same compound, the x-Fold in test [1] (setting [4]) and in test [1] (setting [5]) was 0.57 each time.

Regarding `OB(c1ccsc1)c1ccc2sc3ccc(B(O)c4ccsc4)cc3c2c1` [Example 406, 2,8-di(3-thiophenylhydroxyboryl)dibenzothiophene], the “TGase activity remaining (% of DMSO control = 100)” value in the test on transglutaminase (TGase) (setting [2]) and with transglutaminase (TGase) (setting [3]) was 61 each time. Further, the x-Fold in test [1] (setting [4]) and in test [1] (setting [5]) was 0.85 throughout.

Regarding `OB(c1ccc(COCc2ccc(B(O)c3ccc(C(F)(F)F)cc3)cc2)cc1)c1ccc(C(F)(F)F)cc1` [Example 407, bis(4,4′-(p-trifluoromethylphenyl-hydroxyboryl)benzyl)ether], in the test with transglutaminase (TGase) (setting [2]), the “TGase activity remaining (% of DMSO control = 100)” value stood at 77. In test [1] (setting [5]), the x-Fold was found to be 1.02.

For the compound `NCCOB(c1ccccc1)c1ccc2sc3ccc(B(OCCN)c4ccccc4)cc3c2c1` [Example 408, 2,8-di(phenylaminoethoxyboryl)dibenzothiophene], the “TGase activity remaining (% of DMSO control = 100)” value in the test with transglutaminase (TGase) (setting [2]) and in the test with transglutaminase (TGase) (setting [3]) was 108 throughout. The x-Fold in test [1] (setting [4]) and in test [1] (setting [5]) was 0.92 throughout.

As to `OB(c1ccc(COCc2ccc(B(O)c3ccc(F)c(F)c3)cc2)cc1)c1ccc(F)c(F)c1` [Example 411, bis(4,4′-(3,4-difluorophenyl-hydroxyboryl)benzyl)ether], the “TGase activity remaining (% of DMSO control = 100)” value in the test on transglutaminase (TGase) (setting [2]) and with transglutaminase (TGase) (setting [3]) was 138 throughout. Also, the x-Fold in test [1] (setting [4]) and in test [1] (setting [5]) was 0.90 each time.

`COc1ccc(B(OCCN(C)C)c2ccc(COCc3ccc(B(OCCN(C)C)c4ccc(OC)cc4)cc3)cc2)cc1` [Example 414, bis(4,4′-(p-methoxyphenyl-N,N-dimethylaminoethoxyboryl)benzyl)ether]: the “TGase activity remaining (% of DMSO control = 100)” value in the test on transglutaminase (TGase) (setting [2]) and with transglutaminase (TGase) (setting [3]) was 128 throughout. In addition, the x-Fold in test [1] (setting [4]) and in test [1] (setting [5]) was 0.90 throughout.

For the compound `COc1ccc(B(OC(=O)C(N)CCN)c2ccc(COCc3ccc(B(OC(=O)C(N)CCN)c4ccc(OC)cc4)cc3)cc2)cc1` (centres unmarked) [Example 415, bis(4,4′-(p-methoxyphenyl-2,4-diaminobutyric acid boryl)benzyl)ether], the “TGase activity remaining (% of DMSO control = 100)” value in the test with transglutaminase (TGase) (setting [2]) and in the test with transglutaminase (TGase) (setting [3]) was 130 throughout. The x-Fold in test [1] (setting [4]) and in test [1] (setting [5]) was 0.90 throughout.

With `NCCOB(c1ccc(COCc2ccc(B(OCCN)c3ccc(F)c(F)c3)cc2)cc1)c1ccc(F)c(F)c1` [Example 416, bis(4,4′-(3,4-difluorophenyl-aminoethoxyboryl)benzyl)ether], the “TGase activity remaining (% of DMSO control = 100)” value with transglutaminase (TGase) (setting [2]) and with transglutaminase (TGase) (setting [3]) was 114 in each case. Moreover, the x-Fold in test [1] (setting [4]) and in test [1] (setting [5]) was 0.92 throughout.

`CNCCOB(c1ccc(COCc2ccc(B(OCCNC)c3ccc(F)c(F)c3)cc2)cc1)c1ccc(F)c(F)c1` [Example 417, bis(4,4′-(3,4-difluorophenyl-N-methylaminoethoxyboryl)benzyl)ether]: the “TGase activity remaining (% of DMSO control = 100)” value in the test on transglutaminase (TGase) (setting [2]) and in the test with transglutaminase (TGase) (setting [3]) was 91 throughout. For the same compound, the x-Fold in test [1] (setting [4]) and in test [1] (setting [5]) was 1.01 throughout.

Turning to `CN(C)CCOB(c1ccc(COCc2ccc(B(OCCN(C)C)c3ccc(F)c(F)c3)cc2)cc1)c1ccc(F)c(F)c1` [Example 418, bis(4,4′-(3,4-difluorophenyl-N,N-dimethylaminoethoxyboryl)benzyl)ether], the “TGase activity remaining (% of DMSO control = 100)” value with transglutaminase (TGase) (setting [2]) and with transglutaminase (TGase) (setting [3]) was 45 throughout. The x-Fold in test [1] (setting [4]) and in test [1] (setting [5]) was 1.02 throughout.

`NCCNCCOB(c1ccc(COCc2ccc(B(OCCNCCN)c3ccc(F)c(F)c3)cc2)cc1)c1ccc(F)c(F)c1` [Example 419, bis(4,4′-(3,4-difluorophenyl-N-aminoethylaminoethoxyboryl)benzyl)ether]: the “TGase activity remaining (% of DMSO control = 100)” value in the test on transglutaminase (TGase) (setting [2]) is given as 140; in the test on transglutaminase (TGase) (setting [3]) it was 140; with transglutaminase (TGase) (TGase inhibitory activity value, Table 1), 108. Moreover, the x-Fold in test [1] (setting [6]) was found to be 1.02; in test [1] (setting [4]), 0.90; in test [1] (setting [5]) it was 0.90.

Consider `COc1ccc(C(OB(c2ccccc2)c2ccc(COc3ccc(B(OC(c4ccc(OC)cc4)c4ccccn4)c4ccccc4)cc3)cc2)c2ccccn2)cc1` (centres unmarked) [Example 430, 4-(phenyl-p-methoxyphenyl-2-pyridylmethoxyboryl)-phenyl 4′-(phenyl-p-methoxyphenyl-2-pyridylmethoxyboryl)benzylether], for which the “TGase activity remaining (% of DMSO control = 100)” value in the test on transglutaminase (TGase) (setting [2]) and in the test on transglutaminase (TGase) (setting [3]) was 106 in each case. In addition, the x-Fold in test [1] (setting [4]) and in test [1] (setting [5]) was 1.03 throughout.

As for `c1ccc(B(OC2CCCNC2)c2ccc(Oc3ccc(B(OC4CCCNC4)c4ccccc4)cc3)cc2)cc1` (centres unmarked) [Example 431, bis(4,4′-(phenyl-3-piperidyloxyboryl)phenyl)ether], the “TGase activity remaining (% of DMSO control = 100)” value in the test on transglutaminase (TGase) (setting [2]) came to 118. Moreover, the figures for the x-Fold in test [1] (setting [6]) and in test [1] (setting [5]) were 0.57 and 1.02, respectively.

`NCC(N)C(=O)OB(c1ccccc1)c1ccc(Oc2ccc(B(OC(=O)C(N)CN)c3ccccc3)cc2)cc1` (centres unmarked) [Example 436, bis(4,4′-(phenyl-2,3-diaminopropionic acid boryl)phenyl)ether]: the “TGase activity remaining (% of DMSO control = 100)” value in the test with transglutaminase (TGase) (setting [2]) and in the test with transglutaminase (TGase) (setting [3]) was 104 throughout. Also, the x-Fold in test [1] (setting [6]) is reported as 0.73; in test [1] (setting [4]), 0.85; in test [1] (setting [5]) it was 0.85.

Consider `NCCCCC(N)C(=O)OB(c1ccccc1)c1ccc(Oc2ccc(B(OC(=O)C(N)CCCCN)c3ccccc3)cc2)cc1` (centres unmarked) [Example 437, bis(4,4′-(phenyl-lysineboryl)phenyl)ether], for which the “TGase activity remaining (% of DMSO control = 100)” value in the test with transglutaminase (TGase) (setting [2]) and in the test on transglutaminase (TGase) (setting [3]) was 119 in each case. Besides, the x-Fold in test [1] (setting [4]) and in test [1] (setting [5]) was 0.85 throughout.

For the compound `OB(c1ccc(Oc2ccc(B(O)c3cccc4ccccc34)cc2)cc1)c1cccc2ccccc12` [Example 439, bis(4,4′-(naphthylhydroxyboryl)phenyl)ether], the “TGase activity remaining (% of DMSO control = 100)” value in the test with transglutaminase (TGase) (setting [2]) and with transglutaminase (TGase) (setting [3]) was 33 throughout. Also, the x-Fold in test [1] (setting [4]) and in test [1] (setting [5]) was 0.54 each time.

As for `Cc1ccc(B(O)c2ccc(Oc3ccc(B(O)c4ccc(C)cc4)cc3)cc2)cc1` [Example 440, bis(4,4′-(tolylhydroxyboryl)phenyl)ether], the “TGase activity remaining (% of DMSO control = 100)” value in the test on transglutaminase (TGase) (setting [2]) and in the test on transglutaminase (TGase) (setting [3]) was 63 throughout. The x-Fold in test [1] (setting [4]) and in test [1] (setting [5]) was 0.69 throughout.

Take `NCCOB(c1ccc(Oc2ccc(B(OCCN)c3cccc4ccccc34)cc2)cc1)c1cccc2ccccc12` [Example 441, bis(4,4′-(naphthyl-aminoethoxyboryl)phenyl)ether]: the “TGase activity remaining (% of DMSO control = 100)” value with transglutaminase (TGase) (setting [2]) and in the test with transglutaminase (TGase) (setting [3]) was −1 throughout. Also, the x-Fold in test [1] (setting [4]) and in test [1] (setting [5]) was 0.58 in each case.

`CN(C)CCOB(c1ccc(Oc2ccc(B(OCCN(C)C)c3cccc4ccccc34)cc2)cc1)c1cccc2ccccc12` [Example 442, bis(4,4′-(naphthyldimethylaminoethoxyboryl)phenyl)ether]: the “TGase activity remaining (% of DMSO control = 100)” value with transglutaminase (TGase) (setting [2]) and with transglutaminase (TGase) (setting [3]) was 102 each time. For the same compound, the x-Fold was found to be 0.92 in test [1] (setting [6]), 0.58 in test [1] (setting [4]) and 0.58 in test [1] (setting [5]).

Regarding `NCCC(N)C(=O)OB(c1ccc(Oc2ccc(B(OC(=O)C(N)CCN)c3cccc4ccccc34)cc2)cc1)c1cccc2ccccc12` (centres unmarked) [Example 445, bis(4,4′-(naphthyl 2,4-diaminopropionic acid boryl)phenyl)ether], the “TGase activity remaining (% of DMSO control = 100)” value in the test on transglutaminase (TGase) (setting [2]) and in the test with transglutaminase (TGase) (setting [3]) was 108 each time. The x-Fold in test [1] (setting [4]) and in test [1] (setting [5]) was 0.49 throughout.

Regarding `Cc1ccc(B(OCCN(C)C)c2ccc(Oc3ccc(B(OCCN(C)C)c4ccc(C)cc4)cc3)cc2)cc1` [Example 446, bis(4,4′-(tolyldimethylaminoethoxyboryl)phenyl)ether], the “TGase activity remaining (% of DMSO control = 100)” value in the test on transglutaminase (TGase) (setting [2]) and in the test with transglutaminase (TGase) (setting [3]) was 73 in each case. Moreover, the x-Fold in test [1] (setting [4]) and in test [1] (setting [5]) was 0.85 throughout.
